Among the test systems are M19-MEL melanoma; CAKI-1 renal; DLD-1 colon; LOX IMVI melanoma; K-562 leukemia; UO-31 renal; DMS 114 small cell lung; OVCAR-3 ovarian; 786-0 renal; HCT-116 colon.
Common to all, as to assay: growth of human tumour cells (NCI), 48 h

“And” between values parts separate entries of the source, which are not always exact repeats. Identical values can stand only once.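 Cultured in 96-well plates, cells were exposed to test compound for 48 hours across five concentrations. GI50 marks 50% less growth. At the TGI there is no net growth.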

`COc1ccc2c(c1OC)C1=C(C2=O)c2cc3c(cc2CCN1)OCO3`: the TGI in the test on M19-MEL melanoma is > 100 µM; in the test on CAKI-1 renal it was 83 µM; in the test on DLD-1 colon, > 100 µM; in the test with LOX IMVI melanoma, 61.1 µM; with K-562 leukemia it was 87.8 µM; in the test with UO-31 renal it was > 100 µM. The TGI in the test with DMS 114 small cell lung was 56.7 µM; with OVCAR-3 ovarian it was 90.7 µM; in the test with 786-0 renal, > 100 µM; in the test with HCT-116 colon, > 100 µM.
Regarding `CC1(C)OC(=O)C=C([O-])O1.CC1(C)OC(=O)C=C([O-])O1.O=S(=O)([O-])c1ccc([O-])c2ncccc12.O=S(=O)([O-])c1ccc([O-])c2ncccc12.[Ti+4]`, the GI50 is > 100 µM with M19-MEL melanoma; > 100 µM in the test on CAKI-1 renal; > 100 µM in the test with DLD-1 colon; 46.7 µM with LOX IMVI melanoma; > 100 µM in the test on K-562 leukemia; > 100 µM with UO-31 renal. For the same molecule, the GI50 in the test on DMS 114 small cell lung was > 100 µM; with OVCAR-3 ovarian, 86.4 µM; in the test on 786-0 renal it was > 100 µM; in the test with HCT-116 colon, 41.8 µM. Moreover, the TGI in the test on M19-MEL melanoma, in the test with CAKI-1 renal, in the test on DLD-1 colon, in the test with LOX IMVI melanoma, with K-562 leukemia and in the test on UO-31 renal was > 100 µM each time. The TGI with DMS 114 small cell lung, in the test with OVCAR-3 ovarian, in the test on 786-0 renal and in the test on HCT-116 colon was > 100 µM each time.
As for `CCNC(=O)C#CC(=O)NCC`, the GI50 in the test on M19-MEL melanoma, in the test on CAKI-1 renal, in the test on DLD-1 colon, with LOX IMVI melanoma, in the test with K-562 leukemia and in the test on UO-31 renal was > 10 µM each time. Moreover, the GI50 with DMS 114 small cell lung, in the test with OVCAR-3 ovarian, in the test with 786-0 renal and in the test with HCT-116 colon was > 10 µM in each case. The TGI with M19-MEL melanoma was > 100 µM; in the test on CAKI-1 renal it was > 100 µM; with DLD-1 colon, > 64.9 µM; in the test on LOX IMVI melanoma, > 100 µM; in the test on K-562 leukemia it was > 70.2 µM; in the test on UO-31 renal, > 100 µM. In addition, the TGI in the test with DMS 114 small cell lung was > 100 µM; in the test on OVCAR-3 ovarian it was > 100 µM; in the test with 786-0 renal, > 100 µM; in the test with HCT-116 colon it was > 10 µM and 47.7 µM.
`CN(CN1C(=O)C2Cc3ccccc3CN2C1=O)c1ccccn1` (stereo not given): the TGI with M19-MEL melanoma, in the test on CAKI-1 renal, with DLD-1 colon, in the test with LOX IMVI melanoma, in the test on K-562 leukemia and in the test on UO-31 renal was > 100 µM in each case. Besides, the TGI in the test on DMS 114 small cell lung, with OVCAR-3 ovarian and in the test on 786-0 renal was > 100 µM in each case.
Regarding `Cc1c(C(=O)NCCO)[n+](=O)c2cc(Cl)ccc2n1[O-]`, the TGI in the test with M19-MEL melanoma, with DLD-1 colon, in the test on LOX IMVI melanoma, with K-562 leukemia, with UO-31 renal and in the test on DMS 114 small cell lung was > 100 µM in each case. The TGI in the test on OVCAR-3 ovarian, with 786-0 renal and with HCT-116 colon was > 100 µM throughout.
As to `COC(=O)c1sc(C(=O)OC)c2c1CSC2`, the TGI in the test on M19-MEL melanoma, in the test with CAKI-1 renal, in the test on DLD-1 colon, in the test on LOX IMVI melanoma, with K-562 leukemia and in the test with UO-31 renal was > 100 µM each time. In addition, the TGI in the test on DMS 114 small cell lung, with OVCAR-3 ovarian, in the test with 786-0 renal and in the test with HCT-116 colon was > 100 µM in each case.
Take `Cc1ccc(S(=O)(=O)NC(=O)NC23CC4CC(CC(F)(C4)C2)C3)cc1`: the TGI with M19-MEL melanoma, with DLD-1 colon, in the test on LOX IMVI melanoma, in the test on K-562 leukemia, in the test on UO-31 renal and with DMS 114 small cell lung was > 100 µM throughout. In addition, the TGI in the test on OVCAR-3 ovarian, with 786-0 renal and in the test with HCT-116 colon was > 100 µM each time.
For `O=C(Nc1nc2ccccc2n1Cc1ccccc1)NC12CC3CC(CC(C3)C1)C2`, the TGI in the test on M19-MEL melanoma, in the test on CAKI-1 renal, in the test with DLD-1 colon, in the test on LOX IMVI melanoma, in the test on K-562 leukemia and in the test on UO-31 renal was > 100 µM throughout. Also, the TGI in the test with DMS 114 small cell lung was > 100 µM; in the test on OVCAR-3 ovarian, > 100 µM; in the test on 786-0 renal, 92.9 µM; in the test with HCT-116 colon, > 100 µM.
On to `O=c1cc2ccccc2nn1Cc1ccccc1Cl`, for which the TGI in the test with M19-MEL melanoma, with CAKI-1 renal, with DLD-1 colon, in the test on LOX IMVI melanoma, with K-562 leukemia and in the test on UO-31 renal was > 100 µM throughout. Besides, the TGI in the test with DMS 114 small cell lung, with OVCAR-3 ovarian, in the test with 786-0 renal and in the test on HCT-116 colon was > 100 µM in each case.
Regarding `O=C1C=C(Br)C(=O)C12CCc1ccccc12` (stereo not given), the TGI in the test with M19-MEL melanoma stood at 36.5 µM; in the test with CAKI-1 renal, 16.3 µM; in the test with DLD-1 colon, 28.8 µM; with LOX IMVI melanoma, 31.7 µM; with K-562 leukemia, 9.26 µM; in the test with UO-31 renal it was 33 µM. Also, the TGI with DMS 114 small cell lung is 45.2 µM; with OVCAR-3 ovarian it was 41.8 µM; in the test with 786-0 renal, 42.3 µM; in the test with HCT-116 colon it was 28.7 µM.
Turning to `CC(=O)OCCOCNC(=S)N/N=C(\C)c1cnc2ccccc2n1`, the TGI in the test with M19-MEL melanoma was 77.1 µM; in the test with DLD-1 colon it was > 100 µM; in the test with LOX IMVI melanoma, > 100 µM; with K-562 leukemia, > 100 µM; in the test with UO-31 renal, > 100 µM; in the test with DMS 114 small cell lung, 47.4 µM. Moreover, the TGI in the test on OVCAR-3 ovarian, in the test with 786-0 renal and in the test on HCT-116 colon was > 100 µM each time.
Take `NC(=O)N/N=C/C(/C=N/NC(N)=O)[N+](=O)[O-]`: the TGI in the test on M19-MEL melanoma, with CAKI-1 renal, in the test with DLD-1 colon, in the test with LOX IMVI melanoma, with K-562 leukemia and in the test on DMS 114 small cell lung was > 100 µM each time. Also, the TGI in the test with OVCAR-3 ovarian, with 786-0 renal and in the test with HCT-116 colon was > 100 µM in each case.
